The text below walks through data of patent publication US20120172359A1 (NOVARTIS AG, priority 2010, published 2012).

Where a name gives a salt, the structure may show the parent alone. A value given as a limit tells only on which side of the number the result lay.

The target of this experiment is Human BACE-1 (Homo sapiens, UniProt P56817). Nature of the experiment: Test 1: Inhibition of Human BACE-1. The experiment is classed as biochemical. The settings on record: Test 1; recombinant BACE-1 (extracellular domain), acetate buffer pH 4.5, 1 hour with test compound at room temperature, fluorescence-quenched peptide substrate; read-out: Bace IC50.
Sequence of Human BACE-1 (P56817 46-457 limits assumed): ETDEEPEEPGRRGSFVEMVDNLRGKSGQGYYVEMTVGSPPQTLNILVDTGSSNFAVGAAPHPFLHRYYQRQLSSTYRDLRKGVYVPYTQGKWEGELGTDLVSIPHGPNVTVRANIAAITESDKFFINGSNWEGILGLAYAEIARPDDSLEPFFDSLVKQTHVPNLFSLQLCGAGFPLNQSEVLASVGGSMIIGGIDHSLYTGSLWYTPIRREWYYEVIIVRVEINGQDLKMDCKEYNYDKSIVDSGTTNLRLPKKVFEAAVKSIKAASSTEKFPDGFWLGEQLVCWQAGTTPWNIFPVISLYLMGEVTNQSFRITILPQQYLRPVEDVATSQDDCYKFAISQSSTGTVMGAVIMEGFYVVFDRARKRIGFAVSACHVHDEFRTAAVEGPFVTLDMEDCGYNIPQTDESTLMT
One may read the IC50 as the concentration that inhibits the measured activity by half. Consider `NC1=N[C@@](c2cc(NC(=O)c3cnc(O)cn3)ccc2F)(C(F)F)COC1` [Example 145, 5-Hydroxy-pyrazine-2-carboxylic acid [3-((R)-5-amino-3-difluoromethyl-3,6-dihydro-2H-[1,4]oxazin-3-yl)-4-fluoro-phenyl]-amide hydrochloride], for which the IC50 worked out at 340 nM.

Turning to `COc1cnc(C(=O)Nc2ccc(F)c([C@]3(C(F)F)COCC(N)=N3)c2)cn1` [Example 146, 5-Methoxy-pyrazine-2-carboxylic acid [3-((R)-5-amino-3-difluoromethyl-3,6-dihydro-2H-[1,4]oxazin-3-yl)-4-fluoro-phenyl]-amide hydrochloride], the IC50 came out at 100 nM.

`Cc1nc(C(=O)Nc2ccc(F)c([C@]3(C(F)F)COCC(N)=N3)c2)cs1` [Example 148, 2-Methyl-thiazole-4-carboxylic acid [3-((R)-5-amino-3-difluoromethyl-3,6-dihydro-2H-[1,4]oxazin-3-yl)-4-fluoro-phenyl]-amide hydrochloride]: the IC50 amounted to 940 nM.

Consider `Cc1cnc(C(=O)Nc2ccc(F)c([C@]3(C(F)F)COCC(N)=N3)c2)s1` [Example 149, 5-Methyl-thiazole-2-carboxylic acid [3-((R)-5-amino-3-difluoromethyl-3,6-dihydro-2H-[1,4]oxazin-3-yl)-4-fluoro-phenyl]-amide hydrochloride], for which the IC50 is 700 nM.

`Cn1ccc(C(=O)Nc2ccc(F)c([C@]3(C(F)F)COCC(N)=N3)c2)n1` [Example 150, 1-Methyl-1H-pyrazole-3-carboxylic acid [3-((R)-5-amino-3-difluoromethyl-3,6-dihydro-2H-[1,4]oxazin-3-yl)-4-fluoro-phenyl]-amide hydrochloride]: the IC50 turned out to be 290 nM.

On to `Cn1cc([N+](=O)[O-])c(C(=O)Nc2ccc(F)c([C@]3(C(F)F)COCC(N)=N3)c2)n1` [Example 151, 1-Methyl-4-nitro-1H-pyrazole-3-carboxylic acid [3-((R)-5-amino-3-difluoromethyl-3,6-dihydro-2H-[1,4]oxazin-3-yl)-4-fluoro-phenyl]-amide hydrochloride], for which the IC50 came out at 1200 nM.

On to `C[C@@]1(c2cc(NC(=O)c3ncc(Cl)cc3N)ccc2F)CO[C@@](C)(C(F)(F)F)C(N)=N1` [Example 153, 3-Amino-5-chloro-pyridine-2-carboxylic acid [3-((3R,6R)-5-amino-3,6-dimethyl-6-trifluoro-methyl-3,6-dihydro-2H-[1,4]oxazin-3-yl)-4-fluoro-phenyl]amide], for which the IC50 is 8 nM.

Consider `CC1(c2cc(NC(=O)c3ncc(C(F)(F)F)cc3Cl)ccc2F)N=C(N)COCC1(F)F` (centres unmarked) [Example 154, 3-Chloro-5-trifluoromethyl-pyridine-2-carboxylic acid [3-(3-amino-6,6-difluoro-5-methyl-2,5,6,7-tetrahydro-[1,4]oxazepin-5-yl)-4-fluoro-phenyl]-amide], for which the IC50 stood at 120 nM.

Consider `COc1cc(Br)cnc1C(=O)Nc1ccc(F)c(C2(C)N=C(N)COCC2(F)F)c1` (centres unmarked) [Example 155, 5-Bromo-3-methoxy-pyridine-2-carboxylic acid [3-(3-amino-6,6-difluoro-5-methyl-2,5,6,7-tetrahydro-[1,4]oxazepin-5-yl)-4 fluoro-phenyl]-amide], for which the IC50 stood at 180 nM.

Consider `CC1(c2cc(NC(=O)c3ccc(C#N)cn3)ccc2F)N=C(N)COCC1(F)F` (centres unmarked) [Example 156, 5-Cyano-pyridine-2-carboxylic acid [3-(3-amino-6,6-difluoro-5 methyl-2,5,6,7-tetrahydro[1,4]oxazepin-5-yl)-4 fluoro-phenyl]-amide], for which the IC50 amounted to 34 nM.

For `NC1=N[C@@](c2cc(NC(=O)c3cc4cncnc4[nH]3)ccc2F)(C(F)F)COC1` [Example 157, 7H-Pyrrolo[2,3-d]pyrimidine-6-carboxylic acid [3-((R)-5-amino-3-difluoromethyl-3,6-dihydro-2H-[1,4]oxazin-3-yl)-4-fluoro-phenyl]-amide], the IC50 was determined as 5200 nM.

For the molecule `COCCOc1cnc(C(=O)Nc2ccc(F)c([C@]3(C(F)F)COCC(N)=N3)c2)c(N)n1` [Example 158, 3-Amino-5-(2-methoxy-ethoxy)-pyrazine-2-carboxylic acid [3-((R)-5-amino-3-difluoromethyl-3,6-dihydro-2H-[1,4]oxazin-3-yl)-4-fluoro-phenyl]amide], the IC50 was 18 nM.

As to `CCc1ccc(C(=O)Nc2ccc(F)c([C@]3(C(F)F)COCC(N)=N3)c2)nc1` [Example 159], the IC50 was 130 nM.

On to `NC1=N[C@@](c2cc(NC(=O)c3ncc(Cl)cc3N)ccc2F)(C(F)F)COC1` [Example 160, 3-Amino-5-chloro-pyridine-2-carboxylic acid [3-((R)-5-amino-3-difluoromethyl-3,6-dihydro-2H-[1,4]oxazin-3-yl)-4-fluoro-phenyl]-amide], for which the IC50 came to 12 nM.

Consider `COc1cnc(C(=O)Nc2ccc(F)c([C@]3(C(F)F)COCC(N)=N3)c2)c(Cl)c1` [Example 161, 3-Chloro-5-methoxy-pyridine-2-carboxylic acid [3-((R)-5-amino-3-difluoromethyl-3,6-dihydro-2H-[1,4]oxazin-3-yl)-4-fluoro-phenyl]-amide], for which the IC50 worked out at 66 nM.

In the case of `NC1=N[C@@](c2cc(NC(=O)c3ccc(=O)[nH]c3)ccc2F)(C(F)F)COC1` [Example 162, 6-Oxo-1,6-dihydro-pyridine-3-carboxylic acid [3-((R)-5-amino-3-difluoromethyl-3,6-dihydro-2H-[1,4]oxazin-3-yl)-4-fluoro-phenyl]-amide], the IC50 was found to be 8500 nM.

With `NC1=N[C@@](c2cc(NC(=O)c3cc4cccn4cn3)ccc2F)(C(F)F)COC1` [Example 163, Pyrrolo[1,2-c]pyrimidine-3-carboxylic acid [3-((R)-5-amino-3-difluoromethyl-3,6-dihydro-2H-[1,4]oxazin-3-yl)-4-fluoro-phenyl]-amide], the IC50 came to 680 nM.

On to `NC1=N[C@@](c2cc(NC(=O)c3ncc(Br)cc3N)ccc2F)(C(F)F)COC1` [Example 165, 3-Amino-5-bromo-pyridine-2-carboxylic acid [3-((R)-5-amino-3-difluoromethyl-3,6-dihydro-2H-[1,4]oxazin-3-yl)-4-fluoro-phenyl]-amide], for which the IC50 turned out to be 8 nM.

`CCn1ccnc1C(=O)Nc1ccc(F)c([C@]2(C(F)F)COCC(N)=N2)c1` [Example 166, 1-Ethyl-1H-imidazole-2-carboxylic acid [3-((R)-5-amino-3-difluoromethyl-3,6-dihydro-2H-[1,4]oxazin-3-yl)-4-fluoro-phenyl]amide]: the IC50 amounted to 1200 nM.

Consider `C#CCOc1cnc(C(=O)Nc2ccc(F)c([C@]3(C(F)F)COCC(N)=N3)c2)cn1` [Example 167, 5-Prop-2-ynyloxy-pyrazine-2-carboxylic acid [3-((R)-5-amino-3-difluoromethyl-3,6-dihydro-2H-[1,4]oxazin-3-yl)-4-fluoro-phenyl]-amide], for which the IC50 worked out at 3 nM.

With `Cc1nc(C(=O)Nc2ccc(F)c([C@]3(C(F)F)COCC(N)=N3)c2)c(N)o1` [Example 168, 5-Amino-2-methyl-oxazole-4-carboxylic acid [3-((R)-5-amino-3-difluoromethyl-3,6-dihydro-2H-[1,4]oxazin-3-yl)-4-fluoro-phenyl]-amide], the half-maximal inhibitory concentration (IC50) turned out to be 260 nM.

As for `NC1=N[C@@](c2cc(NC(=O)c3ncc(Cl)cc3O)ccc2F)(C(F)F)COC1` [Example 169, 5-Chloro-3-hydroxy-pyridine-2-carboxylic acid [3-((R)-5-amino-3-difluoromethyl-3,6-dihydro-2H-[1,4]oxazin-3-yl)-4-fluoro-phenyl]-amide], the IC50 stood at 12 nM.

As for `CC(C)Oc1cnc(C(=O)Nc2ccc(F)c([C@]3(C(F)F)COCC(N)=N3)c2)cn1` [Example 170, 5-Isopropoxy-pyrazine-2-carboxylic acid [3-((R)-5-amino-3-difluoromethyl-3,6-dihydro-2H-[1,4]oxazin-3-yl)-4-fluoro-phenyl]-amide], the IC50 is 340 nM.

`CCOc1cnc(C(=O)Nc2ccc(F)c([C@]3(C(F)F)COCC(N)=N3)c2)cn1` [Example 171, 5-Ethoxy-pyrazine-2-carboxylic acid [3-((R)-5-amino-3-difluoromethyl-3,6-dihydro-2H-[1,4]oxazin-3-yl)-4-fluoro-phenyl]amide]: the IC50 was 49 nM.

With `Cc1c(C(=O)Nc2ccc(F)c([C@]3(C(F)F)COCC(N)=N3)c2)oc2ccc(CN(C)C)cc12` [Example 172, 5-Dimethylaminomethyl-3-methyl-benzofuran-2-carboxylic acid [3-((R)-5-amino-3-difluoromethyl-3,6-dihydro-2H-[1,4]oxazin-3-yl)-4-fluoro-phenyl]-amide], the IC50 is 9 nM.

For the molecule `Cc1c(C(=O)Nc2ccc(F)c([C@]3(C(F)F)COCC(N)=N3)c2)nnn1C` [Example 173, 1,5-Dimethyl-1H-[1,2,3]triazole-4-carboxylic acid [3-((R)-5-amino-3-difluoromethyl-3,6-dihydro-2H-[1,4]oxazin-3-yl)-4-fluoro-phenyl]-amide], the IC50 was above 10000 nM.

With `COc1cnc(C(=O)Nc2ccc(F)c([C@]3(C(F)F)COCC(N)=N3)c2)c(C)n1` [Example 174, 5-Methoxy-3-methyl-pyrazine-2-carboxylic acid [3-((R)-5-amino-3-difluoromethyl-3,6-dihydro-2H-[1,4]oxazin-3-yl)-4-fluoro-phenyl]-amide], the IC50 came out at 210 nM.

Take `Cc1cc(OC(F)F)cnc1C(=O)Nc1ccc(F)c([C@]2(C(F)F)COCC(N)=N2)c1` [Example 176, 5-Difluoromethoxy-3-methyl-pyridine-2-carboxylic acid [3-((R)-5-amino-3-difluoromethyl-3,6-dihydro-2H-[1,4]oxazin-3-yl)-4-fluoro-phenyl]amide]: the IC50 amounted to 18 nM.

With `Cc1cc(OCF)cnc1C(=O)Nc1ccc(F)c([C@]2(C(F)F)COCC(N)=N2)c1` [Example 177, 5-Fluoromethoxy-3-methyl-pyridine-2-carboxylic acid [3-((R)-5-amino-3-difluoromethyl-3,6-dihydro-2H-[1,4]oxazin-3-yl)-4-fluoro-phenyl]-amide], the IC50 worked out at 29 nM.
